Assays:
Assay type in all cases: cell-based
P2X7 [1] = target: T1, P2X7 (Homo sapiens (Human), UniProt Q99572); assay: P2X7 antagonism in human PBMCs (LPS + Bz-ATP induced IL-1β release, ELISA); conditions: LPS 30 ng/ml, Bz-ATP 0.5 mM; for PBMC 1 μM (% control): compound 1 μM; for PBMC 10 μM (% control): compound 10 μM;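 on all read-outs here: PBMCs from donor human blood, with a further 1.5 h incubation of the cells in the assay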
P2X7 [2] = target: T1, P2X7; assay: Ca2+ flux (FLIPR) in 1321N1 cells expressing recombinant human P2X7 channel; conditions: 250 μM BzATP;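 further: Calcium-4 dye-loaded cells exposed to compound for 30 min before agonist addition, fluorescence change read 180 s after agonist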
rat P2X7 = rat P2X7 (Rattus norvegicus (Rat), UniProt Q64663); assay: Ca2+ flux (FLIPR) in 1321N1 cells expressing recombinant rat P2X7 channel; conditions: 250 μM BzATP;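 further: Calcium-4 dye fluorescence change read 180 s after agonist addition, following 30 min cell preincubation with test compound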
Sequence of rat P2X7 (Q64663 whole entry): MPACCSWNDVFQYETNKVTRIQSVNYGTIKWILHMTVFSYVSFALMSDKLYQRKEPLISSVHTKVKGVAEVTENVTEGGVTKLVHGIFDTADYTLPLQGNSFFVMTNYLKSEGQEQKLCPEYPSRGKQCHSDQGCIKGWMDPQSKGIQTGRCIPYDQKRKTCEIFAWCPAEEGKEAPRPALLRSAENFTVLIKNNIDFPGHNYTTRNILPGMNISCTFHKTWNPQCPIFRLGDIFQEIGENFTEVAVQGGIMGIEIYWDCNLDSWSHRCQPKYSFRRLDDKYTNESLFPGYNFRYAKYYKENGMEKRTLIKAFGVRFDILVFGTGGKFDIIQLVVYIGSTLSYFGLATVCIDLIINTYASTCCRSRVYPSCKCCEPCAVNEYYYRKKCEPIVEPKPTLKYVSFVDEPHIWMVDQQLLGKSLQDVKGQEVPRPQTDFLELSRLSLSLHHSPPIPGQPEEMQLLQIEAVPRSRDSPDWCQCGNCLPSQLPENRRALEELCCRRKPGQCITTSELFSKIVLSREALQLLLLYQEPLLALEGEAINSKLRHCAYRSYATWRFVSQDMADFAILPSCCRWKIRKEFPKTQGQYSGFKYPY

T1 sequence (Q99572 whole entry): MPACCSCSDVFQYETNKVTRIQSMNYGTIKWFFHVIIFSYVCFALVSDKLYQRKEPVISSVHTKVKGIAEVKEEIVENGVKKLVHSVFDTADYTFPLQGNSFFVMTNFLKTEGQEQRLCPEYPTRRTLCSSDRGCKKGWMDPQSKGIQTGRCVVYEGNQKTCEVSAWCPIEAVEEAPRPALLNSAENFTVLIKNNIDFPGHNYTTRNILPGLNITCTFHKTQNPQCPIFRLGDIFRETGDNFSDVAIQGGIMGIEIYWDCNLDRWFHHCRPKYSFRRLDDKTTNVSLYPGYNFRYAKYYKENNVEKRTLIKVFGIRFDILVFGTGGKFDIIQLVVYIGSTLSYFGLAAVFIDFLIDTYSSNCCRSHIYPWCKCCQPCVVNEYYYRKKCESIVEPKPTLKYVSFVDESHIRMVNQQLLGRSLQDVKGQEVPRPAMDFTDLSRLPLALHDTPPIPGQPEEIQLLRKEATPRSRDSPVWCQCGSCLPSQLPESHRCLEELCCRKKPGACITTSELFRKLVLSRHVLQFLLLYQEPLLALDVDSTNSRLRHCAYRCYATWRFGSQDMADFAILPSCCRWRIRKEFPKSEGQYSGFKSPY

Row | PBMC 1 μM (% control) (P2X7 [1]) | IC50 (P2X7 [2]) | IC50 (rat P2X7) | PBMC 10 μM (% control) (P2X7 [1]) | Structure (SMILES)
1 | 4.8 % control | 0.0138 µM | 0.0165 µM |  | CCOC(=O)C1c2ncn(-c3cnccn3)c2CCN1C(=O)c1cccc(C(F)(F)F)c1Cl (stereo not drawn) [Example 28, Ethyl 5-{[2-chloro-3-(trifluoromethyl)phenyl]carbonyl}-1-pyrazin-2-yl-4,5,6,7-tetrahydro-1H-imidazo[4,5-c]pyridine-4-carboxylate]
2 |  | 0.0144 µM | 0.604 µM | 1.8 % control | C[C@H]1Cc2c(nnn2-c2ncc(F)cn2)CN1C(=O)c1ccc(Cl)cc1F [Example 156, (S)-(4-chloro-2-fluorophenyl)(1-(5-fluoropyrimidin-2-yl)-6-methyl-6,7-dihydro-1H-[1,2,3]triazolo[4,5-c]pyridin-5(4H)-yl)methanone]
3 |  | 0.2 µM | 2 µM | −40.9 % control | CC1C=CN=C(n2nnc3c2CCN(C(=O)c2cccc(C(F)(F)F)c2Cl)[C@@H]3C)N1 (single isomer, unassigned) [Example 234, (4R*)-(2-Chloro-3-(trifluoromethyl)phenyl)((4R)-4-methyl-1-(6-methyl-1,6-dihydropyrimidin-2-yl)-6,7-dihydro-1H-[1,2,3]triazolo[4,5-c]pyridin-5(4H)-yl)methanone]
4 |  | 0.0271 µM | 0.724 µM | −4.1 % control | CC1CN(C(=O)c2cccc(C(F)(F)F)c2Cl)C(C)c2nnn(-c3ccc(F)cc3)c21 (stereo not drawn) [Example 238, (2-Chloro-3-(trifluoromethyl)phenyl)(1-(4-fluorophenyl)-4,7-dimethyl-6,7-dihydro-1H-[1,2,3]triazolo[4,5-c]pyridin-5(4H)-yl)methanone]
5 |  | 0.506 µM | 6.68 µM | 17.8 % control | C[C@@H]1Cc2c(nnn2-c2ncccn2)CN1C(=O)c1cccc(C(F)(F)F)c1Cl (single isomer, unassigned) [Example 221, (6R*)-5-{[2-Chloro-3-(trifluoromethyl)phenyl]carbonyl}-6-methyl-1-pyrimidin-2-yl-4,5,6,7-tetrahydro-1H-[1,2,3]triazolo[4,5-c]pyridine]
6 |  | > 10 µM | > 10 µM | 89.5 % control | CC1c2ncn(-c3ccc(F)cn3)c2CCN1C(=O)c1ccccc1F (stereo not drawn) [Example 264, (2-fluorophenyl)(1-(5-fluoropyridin-2-yl)-4-methyl-6,7-dihydro-1H-imidazo[4,5-c]pyridin-5(4H)-yl)methanone]
7 |  | > 10 µM | > 10 µM | 101.5 % control | Cc1cnc(-n2nnc3c2CCN(C(=O)c2cccc(Cl)c2Cl)C3C)c(C)c1 (stereo not drawn) [Example 160, (2,3-dichlorophenyl)(1-(3,5-dimethylpyridin-2-yl)-4-methyl-6,7-dihydro-1H-[1,2,3]triazolo[4,5-c]pyridin-5(4H)-yl)methanone]
8 |  | > 10 µM | > 10 µM | 10.1 % control | CCc1cccnc1-n1nnc2c1CCN(C(=O)c1cccc(C(F)(F)F)c1)C2C (stereo not drawn) [Example 295, (1-(3-ethylpyridin-2-yl)-4-methyl-6,7-dihydro-1H-[1,2,3]triazolo[4,5-c]pyridin-5(4H)-yl)(3-(trifluoromethyl)phenyl)methanone]
9 |  | 0.049 µM | 0.397 µM | 11.1 % control | CC1c2nnn(-c3ccc(F)cn3)c2CCN1C(=O)c1cccc(C(F)(F)F)c1Cl (stereo not drawn) [Example 71, 5-{[2-Chloro-3-(trifluoromethyl)phenyl]carbonyl}-1-(5-fluoropyridin-2-yl)-4-methyl-4,5,6,7-tetrahydro-1H-[1,2,3]triazolo[4,5-c]pyridine]
10 |  | > 10 µM | > 10 µM | 54.1 % control | Cc1cnc(-n2nnc3c2CCN(C(=O)c2cccc(C(F)(F)F)c2Cl)C3C)c(C)c1 (stereo not drawn) [Example 159, (2-chloro-3-(trifluoromethyl)phenyl)(1-(3,5-dimethylpyridin-2-yl)-4-methyl-6,7-dihydro-1H-[1,2,3]triazolo[4,5-c]pyridin-5(4H)-yl)methanone]
11 |  | > 10 µM | 10.7 µM | 2.2 % control | C[C@H]1Cc2c(nnn2-c2ncc(F)cn2)CN1C(=O)c1cc(F)cc(C(F)(F)F)c1 [Example 307, (S)-(3-fluoro-5-(trifluoromethyl)phenyl)(1-(5-fluoropyrimidin-2-yl)-6-methyl-6,7-dihydro-1H-[1,2,3]triazolo[4,5-c]pyridin-5(4H)-yl)methanone]
12 | 93.1 % control | > 10 µM | > 10 µM |  | Cn1nc2c(c1-c1ccncc1)CCN(C(=O)c1cccc(C(F)(F)F)c1Cl)C2 [Example 327, (2-chloro-3-(trifluoromethyl)phenyl)(2-methyl-3-(pyridin-4-yl)-4,5-dihydro-2H-pyrazolo[3,4-c]pyridin-6(7H)-yl)methanone]
13 |  | 2.7 µM | > 10 µM | 30.9 % control | C[C@@H]1c2nnn(-c3cccc(F)n3)c2CCN1C(=O)c1cccc(C(F)(F)F)c1Cl (single isomer, unassigned) [Example 146, (R*)-(2-chloro-3-(trifluoromethyl)phenyl)(1-(6-fluoropyridin-2-yl)-4-methyl-6,7-dihydro-1H-[1,2,3]triazolo[4,5-c]pyridin-5(4H)-yl)methanone]
14 | 83.4 % control | 0.159 µM | 1.26 µM |  | COc1ccccc1-n1nnc2c1CCN(C(=O)c1cccc(C(F)(F)F)c1Cl)C2 [Example 125, (2-Chloro-3-(trifluoromethyl)phenyl)(1-(2-methoxyphenyl)-6,7-dihydro-1H-[1,2,3]triazolo[4,5-c]pyridin-5(4H)-yl)methanone]
15 |  | 2.22 µM | > 10 µM | 4.3 % control | O=C(c1ccc(F)cc1Cl)N1CCc2c(nnn2-c2ccccn2)C1 [Example 117, (2-Chloro-4-fluorophenyl)(1-(pyridin-2-yl)-6,7-dihydro-1H-[1,2,3]triazolo[4,5-c]pyridin-5(4H)-yl)methanone]

The next lines start with the molecule.

Row | Structure (SMILES) | PBMC 1 μM (% control) (P2X7 [1]) | IC50 (P2X7 [2]) | IC50 (rat P2X7) | PBMC 10 μM (% control) (P2X7 [1])
16 | Cn1nc(-c2ccc(F)cc2)c2c1CN(C(=O)c1cccc(C(F)(F)F)c1Cl)CC2 [Example 106, 6-{[2-Chloro-3-(trifluoromethyl)phenyl]carbonyl}-3-(4-fluorophenyl)-1-methyl-4,5,6,7-tetrahydro-1H-pyrazolo[3,4-c]pyridine] | 64.4 % control | 0.159 µM | 1.58 µM | 
17 | O=C(c1cccc(Cl)c1Cl)N1CCc2c(-c3ccc(F)cc3)n[nH]c2C1 [Example 114, 6-[(2,3-Dichlorophenyl)carbonyl]-3-(4-fluorophenyl)-4,5,6,7-tetrahydro-2H-pyrazolo[3,4-c]pyridine] | 20.4 % control | 0.0631 µM | 1.26 µM | 
18 | C[C@@H]1c2nnn(-c3cncnc3)c2CCN1C(=O)c1cccc(C(F)(F)F)c1Cl (single isomer, unassigned) [Example 334, (R*)-(2-chloro-3-(trifluoromethyl)phenyl)(4-methyl-1-(pyrimidin-5-yl)-6,7-dihydro-1H-[1,2,3]triazolo[4,5-c]pyridin-5(4H)-yl)methanone] |  | > 10 µM | > 10 µM | 101.8 % control
19 | Cn1nc2c(c1-c1cncnc1)CCN(C(=O)c1cccc(Cl)c1Cl)C2 [Example 329, (2,3-dichlorophenyl)(2-methyl-3-(pyrimidin-5-yl)-4,5-dihydro-2H-pyrazolo[3,4-c]pyridin-6(7H)-yl)methanone] | 99.5 % control | > 10 µM | > 10 µM | 
20 | O=C(c1cccc(C(F)(F)F)c1F)N1CCc2c(ncn2-c2ccc(F)cn2)C1 [Example 314, (2-fluoro-3-(trifluoromethyl)phenyl)(1-(5-fluoropyridin-2-yl)-6,7-dihydro-1H-imidazo[4,5-c]pyridin-5(4H)-yl)methanone] |  | 2.83 µM | > 10 µM | 18.7 % control
21 | CC1c2nnn(-c3cncnc3)c2C=CN1C(=O)c1cccc(C(F)(F)F)c1Cl (stereo not drawn) [Example 236, (2-Chloro-3-(trifluoromethyl)phenyl)(4-methyl-1-(pyrimidin-5-yl)-1H-[1,2,3]triazolo[4,5-c]pyridin-5(4H)-yl)methanone] |  | 1.19 µM | > 10 µM | 9.3 % control
22 | CC1c2nnn(-c3cncnc3)c2CCN1C(=O)c1cccc(C(F)(F)F)c1Cl (stereo not drawn) [Example 177, (2-Chloro-3-(trifluoromethyl)phenyl)(4-methyl-1-(pyrimidin-5-yl)-6,7-dihydro-1H-[1,2,3]triazolo[4,5-c]pyridin-5(4H)-yl)methanone] |  | 0.227 µM | > 10 µM | 8.6 % control
23 | O=C(c1ccc(Cl)cc1F)N1CCc2c(nnn2-c2ccccn2)C1 [Example 129, (4-Chloro-2-fluorophenyl)(1-(pyridin-2-yl)-6,7-dihydro-1H-[1,2,3]triazolo[4,5-c]pyridin-5(4H)-yl)methanone] |  | 0.366 µM | 3.35 µM | 8.4 % control
24 | Cc1cncc(-n2nnc3c2CCN(C(=O)c2cccc(Cl)c2Cl)C3C)n1 (stereo not drawn) [Example 180, (2,3-dichlorophenyl)(4-methyl-1-(6-methylpyrazin-2-yl)-6,7-dihydro-1H-[1,2,3]triazolo[4,5-c]pyridin-5(4H)-yl)methanone] |  | 0.592 µM | > 10 µM | −3.7 % control
25 | Cc1nc2c(n1-c1ccccc1)CCN(C(=O)c1cccc(C(F)(F)F)c1Cl)C2 [Example 37, (2-Chloro-3-(trifluoromethyl)phenyl)(2-methyl-1-phenyl-6,7-dihydro-1H-imidazo[4,5-c]pyridin-5(4H)-yl)methanone] |  | 0.0993 µM | 1.53 µM | −9.1 % control

Reference: US9464084B2, “P2X7 modulators” (Janssen Pharmaceutica NV, priority 2013, dated 2016)
